# “Also recorded” adds a separate entry of the source.
# Experiments:
# Type in all cases: cell-based, human
# [1] = tested on: BxPC3, Miapaca-2, Panc-1 and capan-1 pancreatic cancer cell lines; experiment: WST-1 assay of aptamer-drug conjugate on pancreatic cancer cell lines; conditions: WST-1, 0.1 to 100 μM, 72 hours; listed as AS1411 aptamer
# Experimental: WST-1 assay for pancreatic cancer cell lines, i.e., BxPC3, Miapaca-2, Panc-1 and capan-1 was performed. Cell inhibition efficacy validation of AS1411-Gem conjugate to the pancreatic cancer cell lines was performed in vitro through WST-1 assay. First, a control aptamer CRO in a naked form without being combined with an anticancer agent, AS1411 having a cancer cell-targeting function, as well as CRO-Gem conjugate and AS1411-Gem conjugate which are combined with an anticancer agent effective to pancreatic cancer, i.e., gemcitabine, respectively, were prepared (Table 2).
# Experimental procedure: Each of the pancreatic cancer cell lines, that is, B×PC3, Miapaca-2, Panc-1 and capan-1 (ATCC, RPMI+10% FBS), was seeded on a 96-well plate in a cell number of 1 to 2×10^4 cells/well, which was defined by a cell test method to determine an appropriate cell concentration, followed by growing for 1 day. The aptamer and aptamer-drug conjugate were dissolved in PBS, respectively, and were immediately treated in each well at concentrations from 0.1 μM up to 100 μM. The treated cells were incubated in a 5% CO2 incubator for 72 hours, treated with 10 μl of a reagent solution for WST-1 assay (WST-1, Roche), respectively, followed by measuring the absorbance at 440 nm using an ELISA reader (FIG. 13).
# [2] = tested on: BT-474 and MCF-7 breast cancer cell lines; experiment: WST-1 assay of ERBB2 aptamer-siRNA conjugate on breast cancer cell lines
# Experimental: In addition, WST-1 assay for the breast cancer cell lines, i.e., BT-474 and MCF-7, was performed. Cell inhibition efficacy validation of ERBB2 aptamer to the breast cancer cell lines was performed in vitro through WST-1 assay. After treating the breast cancer cell lines with a control ERBB2 aptamer without activity, as well as ERBB2 aptamer-siRNA conjugate wherein an effective anticancer agent having excellent anticancer efficacy, that is, siRNA is bound to ERBB2 target aptamer having a cancer cell targeting function, respectively, WST-1 assay was performed.
# [3] = tested on: BT-474 and MCF-7 breast cancer cell lines; experiment: WST-1 assay of atelocollagen-[ERBB2 aptamer-siRNA conjugate] complex on breast cancer cell lines
# Experimental: Cell inhibition efficacy validation of atelcollagen-[ERBB2 aptamer-siRNA conjugate] complex to breast cancer cell lines, i.e., BT-474 and MCF-7, was performed in vitro through WST-1 assay. After treating the breast cancer cell lines with naked ERBB2, atelocollagen-[control aptamer-siRNA conjugate] complex without activity, as well as atelocollagen-[ERBB2 aptamer-siRNA conjugate] complex wherein an effective anticancer agent having excellent anticancer efficacy, that is, siRNA is bound to ERBB2 target aptamer having a cancer cell targeting function, respectively, WST-1 assay was performed.
Substance,"cell viability and proliferation, comparison of efficacy [1]","cell viability and proliferation, comparison of efficacy [2]","cell viability and proliferation, comparison of efficacy [3]"
TTTGGTGGTGGTGGTTGTGGTGGTGGTGG (SEQ ID NO: 3) [AS1411],"much better efficacy than CRO; also recorded: more excellent efficacy than the case of treatment using the original anticancer agent, that is, gemcitabine alone",–,–
"ERBB2 aptamer-siRNA conjugate (chain 1 AGCUGUCACAGAGGGGCUACUU; chain 2 GUAGCCCCUCUGUGACAGCUU; siRNA conjugated to ERBB2 aptamer, further chemistry not given here)",–,much better efficacy than the ERBB2 aptamer,much better efficacy than the control group

# — patent publication US20190338284A1, “COMPLEX FOR DRUG DELIVERY AND STABILIZATION AND PREPARATION METHOD THEREOF” (INTEROLIGO CORPORATION, priority 2016, published 2019)
